Laboratory results reported in patent US20140322198A1, “COMPOSITION COMPRISING VICENIN-2 HAVING A BENEFICIAL EFFECT ON NEUROLOGICAL AND/OR COGNITIVE FUNCTION” (priority 2011, published 2014).
Values after ≈ are worked out from the molar mass of the structure shown. “Also recorded” adds a separate entry of the source.

Columns and labels:
[1] = system: murine frontal cortex networks; assay: Acute effects on cortical network activity (spike rate), MEA-neurochip multichannel recording; format: cell-based, mice
Method: Purpose of this example was the evaluation of the acute neuroactive effects of vicenin 2 (named AUC-V) and of Perilla extract (named AUC-P) comprising and standardized on Vicenin 2 on the neuronal activity of murine frontal cortex networks in vitro by means of electrophysiological multi-channel recordings. In this system, cells or tissues are grown directly on the chip surface and communicate via chemical and electrical signals. The MEA-neurochip allows the non-invasive, long-term, multisite recording of electrical signal patterns of primary neuronal networks. Said MEA-neurochip technology enables the characterization of network activity pattern on the single-cell action-potential level and on the level of complex neuronal networks as the basic functional units. This can also be used as a test system for investigating neuro-physiological properties of compounds. Despite the complexity, the neurophysiological action profiles of neuroactive compounds are sensitive and selective as well as robust and stable, allowing a precise pharmacological “fingerprinting” and the creation of a database of information on well-characterized neuroactive substances. The multiparametric description of the activity pattern changes caused by treatment of a brain-region-specific neuronal network is a sophisticated approach to quantify the complex effects of neuroactive agents, of unknown compounds, and of complex mixtures such as biological extracts. Correlation with well-known neuroactive substances and their specific pattern, available in specific databased, provides novel insights into the possible pharmacological and physiological mechanisms of modes of action of herbal preparations or isolated substances. […] The recorded electrical activity patterns were characterized by 200 features and their changes were statistically evaluated. […] Cultures were incubated at 37° C. in a 10% CO2 atmosphere until ready for use, which usually is four weeks to three months after seeding. […]

[2] = system: murine frontal cortex networks; assay: Pattern recognition and classification of MEA activity patterns against NeuroProof database (105 substances); format: cell-based, mice; details: for % of data records classified as reference substance: AUC-V, all
Method: Afterwards, a further analysis was carried out through a pattern-recognition analysis and through comparison with NeuroProof database to determine relevant mechanisms involved in the frontal cortex activity pattern induced changes by each substance.
To clarify the mode of action of the test substance on the activity of cortical networks these experiments were further analyzed using methods of pattern recognition. For each stable concentration activity phase the 200 spike train parameters were normalized by the native reference activity.
Using a feature selection algorithm, on the basis of the reference substances, the 40 most descriptive parameters for all 200 spike train parameters were selected. The rankings of activity features using various score methods based on classification experiments and comparing their total correct predictions were calculated. In this manner, the best results for a MDL (minimal description length) modified algorithm were obtained. A training data set with these 40 spike train parameters was established in the form of data records from the reference substances. An artificial neuronal network, multi layer feed forward network and back propagation algorithm without hidden units was then trained. The respective data records of the four substances were all subsequently classified. A classification against 105 substances in the database was carried out.

[3] = system: TNFα; assay: Ex vivo TNFα secretion in LPS-stimulated human whole blood; format: cell-based; details: ex vivo study, statement in words
Method: TNF alpha secretion [pg/ml] after co-incubation with LPS and Perilla extract of different concentration (1 μg/ml, 2.5 μg/ml and 50 μg/ml) against 450 μg/ml a benchmark blend, containing e.g. Boswellia extract, Omega 3 fatty acids, ALA and Curcumin. This study investigated the efficacy of Perilla extract comprising vicenin 2 to contribute to reduce TNFα levels. The study was designed as an ex vivo study, where human whole blood samples were treated with LPS, a bacterial blend, to stimulate inflammation which leads to an increase of the cytokine TNFα. Furthermore, the effect to reduce TNFα by Perilla extract was measured in comparison to a negative and positive control.

With `O=c1cc(-c2ccc(O)cc2)oc2c([C@@H]3O[C@H](CO)[C@@H](O)[C@H](O)[C@H]3O)c(O)c([C@@H]3O[C@H](CO)[C@@H](O)[C@H](O)[C@H]3O)c(O)c12` [vicenin 2, 5,7-Dihydroxy-2-(4-hydroxyphenyl)-6,8-bis[(2S,3R,4R,5S,6R)-3,4,5-trihydroxy-6 (hydroxymethyl)oxan-2-yl]chromen-4-one] the EC50 ([1]; Mus musculus, spike rate, frontal cortex networks in vitro, 9 accumulating concentrations, read-out: EC50 of decrease of the cortical network activity) was 0.002 ng/mL (≈ 0.00336 nM), the “effects on burst structure and oscillatory behaviour of the network” value ([1]; cortical network activity pattern) was “no affects on the burst structure, however on the oscillatory behaviour of the network” and the “maximum decrease to % of the native activity” value ([1]; cortical network activity, native activity = 100%) was 80%. The “% of data records classified as reference substance” value (“% of data records classified” below) ([2]; classified as Amisulpride) was 15%, the “% of data records classified” value ([2]; classified as Atropinemethylbromide) was 12% and the “% of data records classified” value ([2]; classified as DPDPE) was 11%. For the same compound, the “% of data records classified” value ([2]; classified as Enkephalin) was 14%, the “% of data records classified” value ([2]; classified as Eserine) was 15% and the “% of data records classified” value ([2]; classified as Indatraline) was 12%. For the same compound, the “% of data records classified” value ([2]; classified as Modafinil) was 12%, the “% of data records classified” value ([2]; classified as Nicotine) was 12% and the “% of data records classified” value ([2]; classified as Olanzapine) was 17%. For the same compound, the “% of data records classified” value ([2]; classified as Sodium dodecyl sulfate) was 12%, the “activity identified by the classification” value ([2]; classification against reference substances (Amisulpride, Muscimol, Enkephalin)) was “sedative and anxiolytic activity; also recorded: enkephalin-like activity” and the “electrophysiological multi-channel recording pattern compared with positive controls” value ([2]; similarity to reference substances, in words) was “comparable with the pattern of the positive control eserine and nicotine; also recorded: comparable with the pattern of the positive control of carboxolone; also recorded: effects similar to amisulpride”. The anti-inflammatory effects [3] was “anti-inflammatory effects”.
